Laboratory results: article PMC5571287 (Antimicrobial Agents and Chemotherapy, 2017)
Like-named read-outs stand apart in the source and are kept apart here.

How the values were obtained:
[1] = system: RSV A2; assay: CPE assay, RSV A2 in HEp-2 cells (resazurin); type: cell-based, respiratory syncytial virus; conditions: human respiratory syncytial virus, HEp-2
[2] = system: RSV A 1997/12-35; assay: CPE 1, resazurin 384-well CPE assay in HEp-2; type: cell-based; conditions: human respiratory syncytial virus
Procedure: (§1) For known clinical strains (RSV A 1997/12-35, 2001/2-20, 200/3-4, and Memphis 37), a 384-well-format resazurin-based CPE assay was conducted.

[3] = system: RSV A 2000/3-4; assay: CPE 1, resazurin 384-well CPE assay in HEp-2; type: cell-based; conditions: human respiratory syncytial virus
Procedure: as §1

[4] = system: RSV A 2001/2-20; assay: CPE 1, resazurin 384-well CPE assay in HEp-2; type: cell-based; conditions: human respiratory syncytial virus
Procedure: as §1

[5] = system: RSV A Memphis 37c; assay: CPE 1, resazurin 384-well CPE assay in HEp-2; type: cell-based; conditions: human respiratory syncytial virus
Procedure: as §1

[6] = system: RSV A Long; assay: CPE assay in HEp-2 cells (resazurin); type: cell-based; conditions: human respiratory syncytial virus, laboratory
[7] = system: RSVB 1000; assay: microbe, parasite or virus in culture; type: cell-based; conditions: human respiratory syncytial virus, RSVB 1000, clinical, 3 parameter curve fit
[8] = system: RSV A Long; assay: microbe, parasite or virus in culture; type: cell-based, respiratory syncytial virus
[9] = system: PIV3 (C243 strain); assay: organism not typed; type: cell-based, parainfluenza virus 3; conditions: PIV3, LLC-MK2 7.1
[10] = system: HIV-1 (IIIB strain); assay: microbe, parasite or virus in culture; type: cell-based, human immunodeficiency virus type 1; conditions: HIV-1, CEM-SS
[11] = system: Herpes simplex virus 1 (HF strain); assay: microbe, parasite or virus in culture; type: cell-based; conditions: Herpes simplex virus 1, Vero
[12] = system: RSV A Long; assay: RSV A Long-infected cotton rats, lung homogenate viral load and transcripts; type: in vivo
[13] = system: PC786 escape mutant (Y1631H) of RSV A2; type: cell-based, respiratory syncytial virus; conditions: CPE
[14] = system: RSV A2 protein expression; assay: Western blotting of RSV proteins in RSV A2-infected HEp-2 cells; type: cell-based, respiratory syncytial virus; conditions: HEp-2, 3 days postinfection
Procedure: HEp-2 cells were seeded in 6-well plates at a density of 3 × 10^5/well (2 ml/well) 24 h before experimentation and were then treated with compounds (10 μl/well), simultaneously infected with RSV A2 (MOI, 1), and incubated for 72 h. Cells were washed with PBS and collected by scraping in 200 μl of PBS with protease and phosphatase inhibitor cocktail (PPI; Sigma-Aldrich; MSSAFE-1VL 1× in PBS), followed by two further washes with 200 μl of PBS, and the cell suspension was centrifuged to pellet. Radioimmunoprecipitation assay (RIPA) buffer (50 μl) containing 50 mM Tris-HCl (pH 7.4), 150 mM NaCl, 1% (vol/vol) NP-40, 0.25% (wt/vol) sodium deoxycholate, and PPI was applied to the cell pellet, which was vortexed and incubated for 30 min, on ice with further cell disruptions every 10 min. The protein concentration of the supernatant after centrifugation was determined by Bradford assay. The lysate containing 30 μg of protein was separated by electrophoresis on a 4 to 12% gradient bis-Tris polyacrylamide gel (Life Technologies; NP0335BOX) and then transferred to a nitrocellulose membrane using the iBlot gel transfer device (Life Technologies). The membrane was blocked with blocking buffer (TBS/T; 20 mM TBS and 0.1% Tween 20 with 5% skim milk) for 1 h at RT and incubated with anti-RSV F protein antibody (Abcam ab43812; 1:1,000) overnight at 4°C for F protein detection. […]

[15] = biological target: human polymerase α (Homo sapiens, UniProt P09884); assay: Human polymerase inhibition in vitro (data not shown); type: biochemical; conditions: up to 1 μM
human polymerase α, sequence (P09884 whole entry): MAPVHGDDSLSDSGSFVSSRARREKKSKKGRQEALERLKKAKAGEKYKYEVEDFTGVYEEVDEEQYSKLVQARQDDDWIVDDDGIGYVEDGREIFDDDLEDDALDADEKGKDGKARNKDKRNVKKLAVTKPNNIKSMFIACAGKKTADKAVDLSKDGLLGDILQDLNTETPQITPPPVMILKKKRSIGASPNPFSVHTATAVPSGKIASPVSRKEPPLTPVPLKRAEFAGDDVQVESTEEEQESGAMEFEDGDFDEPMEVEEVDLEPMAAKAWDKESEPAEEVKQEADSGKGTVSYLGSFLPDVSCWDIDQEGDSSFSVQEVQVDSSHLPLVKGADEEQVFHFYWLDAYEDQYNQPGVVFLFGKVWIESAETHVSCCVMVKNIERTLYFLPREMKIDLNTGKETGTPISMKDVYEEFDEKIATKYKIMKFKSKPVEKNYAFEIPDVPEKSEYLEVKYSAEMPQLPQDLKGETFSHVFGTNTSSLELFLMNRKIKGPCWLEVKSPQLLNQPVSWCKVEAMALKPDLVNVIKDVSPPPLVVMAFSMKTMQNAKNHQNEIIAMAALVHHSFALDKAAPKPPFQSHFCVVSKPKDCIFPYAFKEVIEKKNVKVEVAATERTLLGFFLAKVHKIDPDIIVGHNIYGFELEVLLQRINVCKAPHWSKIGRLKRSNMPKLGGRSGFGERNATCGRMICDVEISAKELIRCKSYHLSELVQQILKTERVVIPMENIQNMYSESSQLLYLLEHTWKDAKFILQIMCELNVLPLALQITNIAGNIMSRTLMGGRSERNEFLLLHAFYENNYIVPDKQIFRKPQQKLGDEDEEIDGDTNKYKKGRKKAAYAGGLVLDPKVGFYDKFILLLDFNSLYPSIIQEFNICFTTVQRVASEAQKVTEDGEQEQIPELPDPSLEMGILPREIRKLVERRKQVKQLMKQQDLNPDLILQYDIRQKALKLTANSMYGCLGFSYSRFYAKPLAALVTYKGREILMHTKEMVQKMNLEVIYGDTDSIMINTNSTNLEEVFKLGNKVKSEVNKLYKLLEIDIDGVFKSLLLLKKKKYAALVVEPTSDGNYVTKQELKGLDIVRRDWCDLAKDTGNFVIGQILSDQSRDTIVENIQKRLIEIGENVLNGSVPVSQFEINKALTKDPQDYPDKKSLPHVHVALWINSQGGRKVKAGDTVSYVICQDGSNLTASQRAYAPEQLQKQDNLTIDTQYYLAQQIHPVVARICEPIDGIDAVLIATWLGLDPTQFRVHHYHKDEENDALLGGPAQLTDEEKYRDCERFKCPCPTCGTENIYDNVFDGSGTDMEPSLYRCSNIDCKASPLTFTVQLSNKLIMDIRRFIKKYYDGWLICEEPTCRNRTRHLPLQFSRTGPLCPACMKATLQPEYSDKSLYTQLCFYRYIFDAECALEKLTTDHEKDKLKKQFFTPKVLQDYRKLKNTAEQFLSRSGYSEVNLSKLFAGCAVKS

[16] = biological target: human polymerase β (Homo sapiens, UniProt P06746); assay: as above; type: biochemical; conditions: up to 1 μM
[17] = biological target: human polymerase γ (Homo sapiens, UniProt P54098); assay: as above; type: biochemical; conditions: up to 1 μM
human polymerase γ, sequence (P54098 whole entry): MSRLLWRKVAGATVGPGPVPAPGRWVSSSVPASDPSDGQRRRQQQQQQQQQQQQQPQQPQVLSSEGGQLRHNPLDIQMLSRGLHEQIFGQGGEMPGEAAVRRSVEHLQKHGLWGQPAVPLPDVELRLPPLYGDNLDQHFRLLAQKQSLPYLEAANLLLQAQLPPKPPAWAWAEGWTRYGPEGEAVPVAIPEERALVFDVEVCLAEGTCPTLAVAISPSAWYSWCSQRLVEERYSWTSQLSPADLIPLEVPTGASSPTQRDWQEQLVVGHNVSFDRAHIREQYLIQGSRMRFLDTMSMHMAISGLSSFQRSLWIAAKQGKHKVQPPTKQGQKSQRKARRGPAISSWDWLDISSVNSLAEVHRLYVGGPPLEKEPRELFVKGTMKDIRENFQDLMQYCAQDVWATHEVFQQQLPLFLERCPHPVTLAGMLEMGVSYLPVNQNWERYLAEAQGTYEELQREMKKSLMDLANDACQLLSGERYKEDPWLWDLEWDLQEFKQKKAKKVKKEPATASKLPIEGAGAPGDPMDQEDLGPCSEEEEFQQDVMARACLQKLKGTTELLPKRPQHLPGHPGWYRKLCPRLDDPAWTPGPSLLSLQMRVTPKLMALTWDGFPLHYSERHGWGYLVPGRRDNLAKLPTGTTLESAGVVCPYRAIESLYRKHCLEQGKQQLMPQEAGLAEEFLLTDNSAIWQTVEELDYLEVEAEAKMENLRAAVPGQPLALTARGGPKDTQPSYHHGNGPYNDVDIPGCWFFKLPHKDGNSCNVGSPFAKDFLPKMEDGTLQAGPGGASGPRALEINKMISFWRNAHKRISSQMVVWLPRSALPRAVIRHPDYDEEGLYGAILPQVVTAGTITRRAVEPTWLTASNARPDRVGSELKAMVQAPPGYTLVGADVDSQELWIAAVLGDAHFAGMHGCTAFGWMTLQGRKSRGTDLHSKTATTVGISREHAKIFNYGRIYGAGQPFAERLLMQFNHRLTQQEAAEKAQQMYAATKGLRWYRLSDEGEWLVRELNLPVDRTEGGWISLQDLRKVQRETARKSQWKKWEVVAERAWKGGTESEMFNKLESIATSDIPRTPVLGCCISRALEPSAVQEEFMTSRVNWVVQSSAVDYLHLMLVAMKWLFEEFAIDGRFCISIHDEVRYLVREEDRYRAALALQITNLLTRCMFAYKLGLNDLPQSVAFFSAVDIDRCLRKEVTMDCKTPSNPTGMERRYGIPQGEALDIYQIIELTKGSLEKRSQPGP

[18] = system: RSV B 9320; conditions: human respiratory syncytial virus
[19] = system: RSVA 1211; conditions: human respiratory syncytial virus
[20] = system: RSVA 689; conditions: human respiratory syncytial virus
[21] = system: RSVB 1000; conditions: human respiratory syncytial virus
[22] = HEp-2, read-out: RSV titre in supernatant IC50 (0.3 Log PFUe reduction) (converted)
[23] = HEp-2, read-out: RSV titre in supernatant IC90 (1 Log PFUe reduction) (converted)

**Q.** Which results are given for `Cc1cnc(N2CC3(CCOCC3)C2)c(C(=O)Nc2ccc(C(=O)N3CCc4cc(C(=O)Nc5c(C)cccc5F)sc4-c4ccccc43)cc2)c1` [PC786, N-(2-fluoro-6-methylphenyl)-6-(4-(5-methyl-2-(7-oxa-2-azaspiro[3.5]nonan-2-yl)nicotinamido)benzoyl)-5,6-dihydro-4H-benzo[b]thieno[2,3-d]azepine-2-carboxamide]?
**A.** IC50 ([1]; RSV A2, laboratory, low-passage isolate study, read-out: CPE assay IC50): 0.96 nM; IC90 ([1]; RSV A2, laboratory, low-passage isolate study, read-out: CPE assay IC90): 1.82 nM; IC50 ([1]; read-out: RSV A2 IC50): 0.5 ± 0.0014 nM; IC90 ([1]; read-out: RSV A2 IC90): 0.63 ± 0.035 nM; IC50 [2]: 0.35 nM; IC50 [3]: 0.14 nM; IC50 [4]: 0.53 nM; IC50 [5]: 0.5 nM; IC50 [6]: 2.46 nM; IC90 [6]: 3.25 nM; IC50 ([7]; read-out: CPE IC50): 13.4 nM; IC90 ([7]; read-out: CPE IC90): 342 nM; IC90 or IC95 ([8]; HEp-2): <0.42 nM; IC50 ([8]; human respiratory syncytial virus, HEp-2, plaque reduction, applied 2 h before infection): < 0.42 nM; IC50 [9]: > 14000 nM; IC90 or IC95 [9]: >14000 nM; IC90 or IC95 [10]: >14000 nM; IC50 ([10]; Human immunodeficiency virus 1, IIIB): > 14000 nM; IC90 or IC95 [11]: >14000 nM; IC50 ([11]; Human alphaherpesvirus 1): > 14000 nM; IP-10 transcripts in lung homogenates ([12]; i.n. 0.33-10 mg/ml, day 4): dose-dependent inhibition; RANTES transcripts in lung homogenates ([12]; i.n. 0.33-10 mg/ml, day 4): dose-dependent inhibition; RSV NS-1 gene transcripts in lung homogenates ([12]; i.n. 0.33-10 mg/ml, day 4): dose-dependent inhibition; viral load in lung homogenates on day 4 ([12]; i.n. once daily days 0 to 3, doses of more than […] (165 μg/cotton rat)): lower than the detection limit; IC50 ([13]; read-out: PC786 escape mutant IC50, N=3, after 6th passage): 17.9 nM; IC90 ([13]; read-out: PC786 escape mutant IC90, N=3): 1120 nM; concentration above which no or little G, N, P, M, M2-1, and F1 protein bands were visible [14]: greater than 14 nM; inhibitory effects on human polymerase α [15]: no measurable inhibitory effects; inhibitory effects on human polymerase β [16]: no measurable inhibitory effects; inhibitory effects on human polymerase γ [17]: no measurable inhibitory effects; IC50 ([18]; HEp-2, read-out: PCR IC50 (0.3 Log PFUe reduction) (converted)): 30.3 nM; IC90 ([18]; HEp-2, read-out: PCR IC90 (1 Log PFUe reduction) (converted)): 31 nM; IC50 [19, 22]: < 0.09 nM; IC90 [19, 23]: 1.05 nM; IC50 [20, 22]: 0.54 nM; IC90 [20, 23]: 1.12 nM; IC50 [21, 22]: 10.3 nM; IC90 [21, 23]: 12.4 nM
